Assay results reported in PMC3875306 (Bioorganic & medicinal chemistry letters, 2013).

Columns and labels:
[1] = test system: squirrel monkey models of addiction; settings: cited from earlier work
[2] = test system: acoustic prepulse inhibition models; settings: cited from earlier work
rat model of anxiety = settings: cited from earlier work
rat models of addiction = settings: cited from earlier work
[3] = test system: rat models of neuropathic pain; settings: cited from earlier work
[4] = test system: rat models of post-operative pain; settings: cited from earlier work
human mGlu1 = human mGlu1 (Homo sapiens, UniProt Q13255); experiment: Calcium mobilization mGlu1 assay; settings: for preference in mGlu1 NAM activity for the R-enantiomer versus the S-enantiomer: 15 vs 14, 17 vs 16; for LLE (ligand-lipophilicity efficiency): LLE = pIC50 - cLogP
human mGlu1, sequence (Q13255 19-1194): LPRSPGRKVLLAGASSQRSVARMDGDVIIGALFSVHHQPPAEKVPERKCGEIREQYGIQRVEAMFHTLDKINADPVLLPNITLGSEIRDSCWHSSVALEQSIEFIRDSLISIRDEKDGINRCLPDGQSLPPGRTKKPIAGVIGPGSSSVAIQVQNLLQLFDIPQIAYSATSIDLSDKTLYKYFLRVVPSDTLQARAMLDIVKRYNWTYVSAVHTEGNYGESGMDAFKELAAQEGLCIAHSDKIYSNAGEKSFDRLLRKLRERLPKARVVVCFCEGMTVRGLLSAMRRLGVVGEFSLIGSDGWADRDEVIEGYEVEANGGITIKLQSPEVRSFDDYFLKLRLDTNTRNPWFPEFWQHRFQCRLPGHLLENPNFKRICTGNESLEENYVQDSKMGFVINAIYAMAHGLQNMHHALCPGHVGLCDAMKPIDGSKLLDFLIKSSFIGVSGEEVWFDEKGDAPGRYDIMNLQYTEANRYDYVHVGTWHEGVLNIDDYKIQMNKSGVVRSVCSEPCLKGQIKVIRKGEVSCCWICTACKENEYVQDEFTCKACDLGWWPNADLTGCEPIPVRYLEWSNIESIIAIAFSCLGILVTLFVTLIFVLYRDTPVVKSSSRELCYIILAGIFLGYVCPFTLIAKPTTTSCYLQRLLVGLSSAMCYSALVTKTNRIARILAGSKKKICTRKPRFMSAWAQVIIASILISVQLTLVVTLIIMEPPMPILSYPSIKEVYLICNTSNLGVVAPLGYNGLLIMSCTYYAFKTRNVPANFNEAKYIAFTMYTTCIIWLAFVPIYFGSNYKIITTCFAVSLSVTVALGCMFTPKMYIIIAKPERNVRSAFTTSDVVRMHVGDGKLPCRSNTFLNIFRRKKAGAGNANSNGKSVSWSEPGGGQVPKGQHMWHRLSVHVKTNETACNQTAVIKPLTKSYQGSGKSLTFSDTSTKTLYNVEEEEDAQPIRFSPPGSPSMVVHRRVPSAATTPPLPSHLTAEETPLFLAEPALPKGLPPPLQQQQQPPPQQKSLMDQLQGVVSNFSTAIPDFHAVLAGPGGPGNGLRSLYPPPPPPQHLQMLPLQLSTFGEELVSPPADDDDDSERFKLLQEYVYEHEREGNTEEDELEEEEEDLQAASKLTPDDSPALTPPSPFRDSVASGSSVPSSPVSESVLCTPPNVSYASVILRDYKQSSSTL

in vivo = settings: male, Sprague-Dawley, rat, plasma, iv, 0.2 mg/kg
[5] = IV dosing, rat, in words
mGlu2–8 = settings: at 10 µM
[6] = test system: 68 clinically relevant GPCRs, ion channels, kinases, and transporters; experiment: Radioligand binding assay panel; settings: 10 µM; significant = more than 50% inhibition of radioligand binding
rat mGlu1 = rat mGlu1 (Rattus norvegicus, UniProt P23385); experiment: Functional cell based assay against rat mGlu1; settings: HEK 293A TREx cells expressing rat mGlu1
rat mGlu1, sequence (P23385 19-1199): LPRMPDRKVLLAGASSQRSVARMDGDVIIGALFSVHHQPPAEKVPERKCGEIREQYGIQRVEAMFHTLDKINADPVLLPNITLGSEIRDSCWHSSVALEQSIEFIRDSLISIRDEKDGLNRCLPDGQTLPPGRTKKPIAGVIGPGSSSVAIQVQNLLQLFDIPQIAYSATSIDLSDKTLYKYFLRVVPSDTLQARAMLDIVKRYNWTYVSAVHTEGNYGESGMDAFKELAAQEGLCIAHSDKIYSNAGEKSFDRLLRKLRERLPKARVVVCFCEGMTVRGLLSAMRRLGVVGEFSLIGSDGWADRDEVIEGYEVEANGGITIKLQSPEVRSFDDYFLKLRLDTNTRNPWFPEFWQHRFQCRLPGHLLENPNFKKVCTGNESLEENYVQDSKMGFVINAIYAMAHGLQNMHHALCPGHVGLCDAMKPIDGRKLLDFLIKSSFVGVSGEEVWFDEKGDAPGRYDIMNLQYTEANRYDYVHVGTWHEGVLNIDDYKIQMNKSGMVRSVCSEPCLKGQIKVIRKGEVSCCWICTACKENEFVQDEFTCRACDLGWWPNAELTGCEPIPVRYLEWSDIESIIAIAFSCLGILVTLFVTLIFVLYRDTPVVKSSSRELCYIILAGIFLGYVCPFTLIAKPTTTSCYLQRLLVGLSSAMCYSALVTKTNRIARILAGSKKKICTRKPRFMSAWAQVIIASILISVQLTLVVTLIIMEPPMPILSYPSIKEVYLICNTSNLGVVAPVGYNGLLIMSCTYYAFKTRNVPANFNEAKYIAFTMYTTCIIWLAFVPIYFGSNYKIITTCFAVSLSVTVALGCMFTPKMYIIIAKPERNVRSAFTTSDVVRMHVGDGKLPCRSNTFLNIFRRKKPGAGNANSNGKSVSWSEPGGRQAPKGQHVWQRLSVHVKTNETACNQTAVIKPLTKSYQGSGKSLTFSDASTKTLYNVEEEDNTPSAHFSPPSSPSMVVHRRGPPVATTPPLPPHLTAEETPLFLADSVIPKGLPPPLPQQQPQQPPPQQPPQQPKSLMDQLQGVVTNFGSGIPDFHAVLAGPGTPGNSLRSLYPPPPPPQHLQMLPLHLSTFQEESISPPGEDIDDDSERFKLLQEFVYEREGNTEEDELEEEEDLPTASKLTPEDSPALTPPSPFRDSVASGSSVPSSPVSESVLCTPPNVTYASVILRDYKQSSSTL

COC1CCC(C(=O)c2ccc3nc4c(cc3c2)CCCO4)CC1 (centres unmarked) [Compound 1]
efficacy in squirrel monkey models of addiction [1]: efficacious
antipsychotic activity, acoustic prepulse inhibition models, mice [2]: Antipsychotic activity
efficacy in a rat model of anxiety (rat model of anxiety): efficacious
efficacy in rat models of addiction (rat models of addiction): efficacious

CN(C)c1ccnc2sc3c(=O)n(N4CCCCCC4)cnc3c12 [Compound 2]
analgesia in rat models of neuropathic pain [3]: analgesic
analgesia in rat models of post-operative pain [4]: analgesic

C[C@@H]1CN(c2ccccn2)CCN1C(=O)C12CC3CC(CC(C3)C1)C2 [Compound 15]
preference in mGlu1 NAM activity for the R-enantiomer versus the S-enantiomer (human mGlu1): 15 fold

C[C@@H]1CN(C(=O)C23CC4CC(CC(C4)C2)C3)CCN1c1ccccn1 [Compound 17]
preference in mGlu1 NAM activity for the R-enantiomer versus the S-enantiomer (human mGlu1): sixfold

C[C@@H]1CN(C(=O)C23CC4CC(CC(C4)C2)C3)CCN1c1ccncc1 [Compound 39]
mGlu1 activity at the top concentration tested (human mGlu1; 30 µM): no activity

C[C@@H]1CN(c2ccccc2C#N)CCN1C(=O)C12CC3CC(CC(C3)C1)C2 [Compound 46]
LLE (ligand-lipophilicity efficiency) (human mGlu1): 1.82

C[C@@H]1CN(c2cccc(F)n2)CCN1C(=O)C12CC3CC(CC(C3)C1)C2 [Compound 48]
LLE (ligand-lipophilicity efficiency) (human mGlu1): 1.85

C[C@@H]1CN(c2ccc(F)cn2)CCN1C(=O)C12CC3CC(CC(C3)C1)C2 [Compound 49]
LLE (ligand-lipophilicity efficiency) (human mGlu1): 1.73

C[C@@H]1CN(c2ncccc2C#N)CCN1C(=O)C12CC3CC(CC(C3)C1)C2 [Compound 51]
LLE (ligand-lipophilicity efficiency) (human mGlu1): 2.24

C[C@@H]1CN(c2ccncc2C#N)CCN1C(=O)C12CC3CC(CC(C3)C1)C2 [Compound 53]
LLE (ligand-lipophilicity efficiency) (human mGlu1): 2.89

C[C@@H]1CN(c2cccnc2C#N)CCN1C(=O)C12CC3CC(CC(C3)C1)C2 [Compound 54]
half-life (in vivo): ~1 h
clearance [5]: moderate to high
volume of distribution [5]: moderate
activity against mGlu2–8 (mGlu2–8): inactive
responses in radioligand binding panel of 68 targets [6]: no significant responses
activity at rat mGlu1 compared with human mGlu1 (rat mGlu1): little difference across species
